As a reminder, the DC50 is the midpoint of the concentration-degradation curve. By IC50 is commonly meant the midpoint of a concentration-inhibition curve. For orientation: AUC(0-t) means exposure summed from dosing to a finite time, without extrapolation to infinity. A high value points to more exposure. By AUC is commonly meant the area under the concentration-time curve, a measure of exposure. A high value points to more exposure. What is called half-life is the time needed for the level to fall by half in the phase considered. A low value points to rapid decline.

Results on 4 molecules are retold here after patent US20240269298A1, “PHOSPHONYL DERIVATIVE, AND COMPOSITION AND PHARMACEUTICAL APPLICATION THEREOF” (XIZANG HAISCO PHARMACEUTICAL CO., LTD., priority 2021, published 2024).

In data set [1] the target is T1, EGFR protein in NCI-H1975 EGFR-L858R-T790M-C797S cells (Homo sapiens, UniProt P00533, C797S/L858R/T790M).
T1 construct: expressed in transfected cells; host or cells: NCI-H1975 EGFR-L858R-T790M-C797S (kept under hygromycin selection)
T1 sequence (P00533 25-1210 T790M/C797S/L858R): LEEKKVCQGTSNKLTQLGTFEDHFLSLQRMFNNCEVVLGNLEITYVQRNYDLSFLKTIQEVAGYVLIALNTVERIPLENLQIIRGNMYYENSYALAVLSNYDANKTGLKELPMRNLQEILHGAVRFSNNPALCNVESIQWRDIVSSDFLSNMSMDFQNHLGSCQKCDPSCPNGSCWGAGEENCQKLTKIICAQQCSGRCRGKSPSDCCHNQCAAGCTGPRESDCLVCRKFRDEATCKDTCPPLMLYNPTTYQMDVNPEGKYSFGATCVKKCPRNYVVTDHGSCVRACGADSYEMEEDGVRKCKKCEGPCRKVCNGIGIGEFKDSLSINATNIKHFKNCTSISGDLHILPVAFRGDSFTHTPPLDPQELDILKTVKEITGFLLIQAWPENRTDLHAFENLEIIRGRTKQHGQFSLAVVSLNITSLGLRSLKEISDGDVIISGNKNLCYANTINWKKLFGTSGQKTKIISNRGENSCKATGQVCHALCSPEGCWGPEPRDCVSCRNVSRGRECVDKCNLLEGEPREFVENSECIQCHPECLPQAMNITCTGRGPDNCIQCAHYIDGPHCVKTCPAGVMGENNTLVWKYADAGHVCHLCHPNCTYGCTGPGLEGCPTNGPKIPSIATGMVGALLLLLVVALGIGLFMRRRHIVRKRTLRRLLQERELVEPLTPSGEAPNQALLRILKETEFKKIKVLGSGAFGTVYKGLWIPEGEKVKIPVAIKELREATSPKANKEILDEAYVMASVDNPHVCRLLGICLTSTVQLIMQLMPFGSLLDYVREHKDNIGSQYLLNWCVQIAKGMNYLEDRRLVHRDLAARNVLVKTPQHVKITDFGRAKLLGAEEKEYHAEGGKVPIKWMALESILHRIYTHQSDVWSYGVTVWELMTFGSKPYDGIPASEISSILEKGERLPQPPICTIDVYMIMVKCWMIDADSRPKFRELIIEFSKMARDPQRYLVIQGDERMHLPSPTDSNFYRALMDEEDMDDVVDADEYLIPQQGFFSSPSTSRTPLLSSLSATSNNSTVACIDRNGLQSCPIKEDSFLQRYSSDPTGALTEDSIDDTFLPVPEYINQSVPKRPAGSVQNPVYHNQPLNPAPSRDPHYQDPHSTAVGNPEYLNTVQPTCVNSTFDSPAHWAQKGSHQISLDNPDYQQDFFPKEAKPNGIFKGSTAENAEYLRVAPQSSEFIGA
Briefly: Degradation activity on EGFR protein in NCI-H1975 EGFR-L858R-T790M-C797S cells, Method II (western blot, 48 h). It is filed as cell-based. The settings on record: 48 h incubation, EGFR protein relative to DMSO control. The procedure:
Protein sample preparation: NCI-H1975 EGFR-L858R-T790M-C797S cells were cultured in an incubator at 37° C. with 5% CO2, and the culture medium was RPMI1640+10% FBS+100 μg/mL hygromycin. The cells in the logarithmic phase were collected, and the cell suspension was adjusted to an appropriate concentration with a hygromycin-free culture medium, plated on a 6-well plate at a density of 350000 cells/well and a volume of 2 mL, and cultured overnight in an incubator at 37° C. with 5% CO2. The next day, the compounds at different concentrations were added. DMSO control wells were provided, wherein the concentration of DMSO in all wells was 0.1%. The 6-well plate was cultured in an incubator at 37° C. with 5% CO2 for 48 h, and then 30 μL of RIPA lysates (Beyotime, Cat. P0013B) containing protease inhibitors (Beyotime, Cat. P0013B) were added. The mixtures were lysed on ice for 30 min. Centrifugation was carried out at 13000 rpm/min at 4° C. for 20 minutes to collect protein supernatant samples, and protein quantification was performed by the BCA method. Western Blot detection samples were prepared.
Western blot detection: 20 μg of protein samples were added to each well, subjected to polyacrylamide gel electrophoresis and transferred to a membrane, and then diluted anti-EGFR (CST, Cat. 4267S) and […] (Kangchen, Cat. KC-5G4) antibodies were added and incubated overnight at 4° C. After washing the membrane, diluted goat anti-rabbit (Licor, Cat. 926-32211) and goat anti-mouse (Licor, Cat. 926-68070) antibodies were added and incubated in the dark for 45 min. Scanning and detection at wavelengths of 700 nm and 800 nm were performed with a far-infrared imaging system (Odyssey).
According to formula (3), the expression level of EGFR protein in the cells relative to the DMSO control group was calculated after incubation with different concentrations of compounds. wherein EGFRcompound was the fluorescence value of EGFR protein after incubation with compounds, and EGFRvehicle was the fluorescence value of EGFR protein in the DMSO control group. Using the Origin 9.2 software, the drug concentration DC50 values when the expression level of EGFR protein was 50% relative to the DMSO control group were calculated.

For data set [2], the system named is NCI-H1975 EGFR-L858R-T790M-C797S cells. In words: Inhibitory activity on proliferation of NCI-H1975 EGFR-L858R-T790M-C797S cells (CellTiter-Glo, 72 h). Type of data set: cell-based. As to conditions: Homo sapiens. The method in brief: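 Cells (1500/well) exposed to graded compound concentrations for 72 h at 37 °C in hygromycin-free RPMI1640 + 10% FBS, 0.1% DMSO vehicle. Viability by CellTiter-Glo luminescence relative to vehicle; IC50 from nonlinear sigmoidal dose-survival fit.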

The nature of data set [3]: Pharmacokinetic test in mice. It is filed as in vivo. As to conditions: male, ICR, mouse, po, administration i.g. (10 mg/kg), plasma. In outline:
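Male ICR mice (20-25 g), fasted 12-14 h before dosing and fed 4 h after, received a single intravenous or intragastric dose. Orbital plasma sampled from 0 to 24 h (5 min-24 h points); LC-MS/MS quantitation for PK parameters and bioavailability.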

The subject of data set [4] is NCI-H1975 (EGFR-L858R-T790M) cells. Briefly: Inhibitory activity on proliferation of NCI-H1975 (EGFR-L858R-T790M) cells (CTG, 72 h). Type of data set: cell-based. As to conditions: Homo sapiens. In outline:
(§1)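 IC50 values come from S-shaped dose-survival fits of CTG signal expressed as % of vehicle. Compound exposure lasted 72 h at 37 °C with 0.1% DMSO; seeding was 3000 A431 cells/well in DMEM+10% FBS and 1000 NCI-H1975 cells/well in RPMI1640+10% FBS.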

For a further data set, the system named is A431 (EGFR-WT) cells. In words: Inhibitory activity on proliferation of A431 (EGFR-WT) cells (CTG, 72 h). Type of data set: cell-based. As to conditions: Homo sapiens, A-431. The method in brief: as §1
The mark [5] stands for this setting: read-out: IC50 (value in brackets).

Molecules are shown by their SMILES. Like-named read-outs stand apart in the source and are kept apart here.

For the molecule `COc1cc(N2CCN(C[C@H]3CCN(c4ccc5c(c4)C(=O)N(C4CCC(=O)NC4=O)C5=O)C3)CC2)c(-c2cnn(C)c2)cc1Nc1ncc(Br)c(Nc2ccc(-c3ccccc3)cc2P(C)(C)=O)n1` (stereo partly drawn) [Compound 104, 5-((R)-3-((4-(4-((5-bromo-4-((3-(dimethylphosphoryl)-[1,1′-biphenyl]-4-yl)amino)pyrimidin-2-yl)amino)-5-methoxy-2-(1-methyl-1H-pyrazol-4-yl)phenyl)piperazin-1-yl)methyl)pyrrolidin-1-yl)-2-(2,6-dioxopiperidin-3-yl)isoindoline-1,3-dione], in data set [1], the DC50 was less than 100 nM. The IC50 in data set [2] (read-out: IC50 (class symbol)) is less than 200 nM; in data set [2] (read-out: IC50 (value)), 82 nM; in data set [4] (read-out: IC50 (class symbol)), less than 100 nM; in data set [4] (setting [5]) it was 54 nM; with A431 (EGFR-WT) cells it was not below 10000 nM. The molecule further showed an AUC(0-t) in data set [3] of 47300 ng·h/mL.

`COc1cc(N2CCN(C[C@H]3CCN(c4ccc5c(c4)C(=O)N(C4CCC(=O)NC4=O)C5=O)C3)CC2)c(-c2cnn(C)c2)cc1Nc1ncc(Br)c(Nc2ccc(-c3ccccc3F)cc2P(C)(C)=O)n1` (stereo partly drawn) [Compound 117, 5-((R)-3-((4-(4-((5-bromo-4-((3-(dimethylphosphoryl)-2′-fluoro-[1,1′-biphenyl]-4-yl)amino)pyrimidin-2-yl)amino)-5-methoxy-2-(1-methyl-1H-pyrazol-4-yl)phenyl)piperazin-1-yl)methyl)pyrrolidin-1-yl)-2-(2,6-dioxopiperidin-3-yl)isoindoline-1,3-dione] showed a DC50 in data set [1] of less than 100 nM. Moreover, the IC50 in data set [2] (read-out: IC50 (class symbol)) is less than 200 nM; in data set [2] (read-out: IC50 (value)) it was 79 nM; in data set [4] (read-out: IC50 (class symbol)), less than 100 nM; in data set [4] (setting [5]) it was 51 nM; with A431 (EGFR-WT) cells, not below 10000 nM. The same molecule showed an area under the curve AUC(0-t) in data set [3] of 101000 ng·h/mL.

Turning to `COc1cc(N2CCC(CN3CCN(c4ccc5c(c4)C(=O)N(C4CCC(=O)NC4=O)C5=O)CC3)CC2)c(-c2cnn(C)c2)cc1Nc1ncc(Cl)c(Nc2ccc(-c3ccccc3F)cc2P(C)(C)=O)n1` (stereo not drawn) [Compound 102, 5-(4-((1-(4-((5-chloro-4-((3-(dimethylphosphoryl)-2′-fluoro-[1,1′-biphenyl]-4-yl)amino)pyrimidin-2-yl)amino)-5-methoxy-2-(1-methyl-1H-pyrazol-4-yl)phenyl)piperidin-4-yl)methyl)piperazin-1-yl)-2-(2,6-dioxopiperidin-3-yl)isoindoline-1,3-dione], in data set [1], the DC50 is less than 100 nM. The IC50 was less than 200 nM in data set [2] (read-out: IC50 (class symbol)); 152 nM in data set [2] (read-out: IC50 (value)); 100 to 500 nM in data set [4] (read-out: IC50 (class symbol)); 150 nM in data set [4] (setting [5]); not below 10000 nM in the data set on A431 (EGFR-WT) cells. This molecule also yielded an AUC in data set [3] of 87900 ng·h/mL. The molecule also gave a half-life in data set [3] of 9.49 h.

The molecule `COc1cc(N2CCC(CN3CCN(c4ccc5c(c4)C(=O)N(C4CCC(=O)NC4=O)C5=O)CC3)CC2)c(-c2cnn(C)c2)cc1Nc1ncc(Br)c(Nc2ccccc2P(C)(C)=O)n1` (stereo not drawn) [Compound 108, 5-(4-((1-(4-((5-bromo-4-((2-(dimethylphosphoryl)phenyl)amino)pyrimidin-2-yl)amino)-5-methoxy-2-(1-methyl-1H-pyrazol-4-yl)phenyl)piperidin-4-yl)methyl)piperazin-1-yl)-2-(2,6-dioxopiperidin-3-yl)isoindoline-1,3-dione] returned a DC50 in data set [1] of less than 100 nM. The IC50 in data set [2] (read-out: IC50 (class symbol)) was less than 200 nM; in data set [2] (read-out: IC50 (value)), 135 nM; in data set [4] (read-out: IC50 (class symbol)) it was less than 100 nM; in data set [4] (setting [5]) it was 42 nM; in the data set with A431 (EGFR-WT) cells, not below 10000 nM. The AUC in data set [3] is 71000 ng·h/mL. In data set [3], this molecule had a half-life of 4.83 h.
